Bridge positions count the residues as written; N and C are the ends. Square brackets hold non-standard residues; d marks the D form. Peptide text beside a SMILES is read from it. * marks the point of attachment. Bip = N[C@@H](Cc1ccc(-c2ccccc2)cc1)C(=O)O; Phe(3-Me) = Cc1cccc(C[C@H](N)C(=O)O)c1; Cha = N[C@@H](CC1CCCCC1)C(=O)O; Cit = NC(=O)NCCC[C@H](N)C(=O)O; Dap(Me) = CNC[C@H](N)C(=O)O; Carboxymethyl = O=C(O)C*; Orn = NCCC[C@H](N)C(=O)O; Aun = NCCCCCCCCCCC(=O)O; Dab = NCC[C@H](N)C(=O)O; Dap = NC[C@H](N)C(=O)O

T1 sequence (Q15116 25-288): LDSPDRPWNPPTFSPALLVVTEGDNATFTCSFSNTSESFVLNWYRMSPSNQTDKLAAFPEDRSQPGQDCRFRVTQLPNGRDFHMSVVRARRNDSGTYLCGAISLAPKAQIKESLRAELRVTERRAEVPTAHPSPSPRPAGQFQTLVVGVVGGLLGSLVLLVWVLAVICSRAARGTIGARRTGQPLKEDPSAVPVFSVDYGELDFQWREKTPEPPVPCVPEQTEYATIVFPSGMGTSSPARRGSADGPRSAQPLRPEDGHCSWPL

The test concerns the target T1, PD-1/PD-L1 interaction (PE-labeled human PD-L1-Ig binding to Jurkat cell line over-expressing human PD-1) (Homo sapiens, UniProt Q15116).
T1 construct: expressed in transfected cells; host or cells: Jurkat
Kind of test: Jurkat-PD-1 Cell Binding High-Content Screening Assay (CBA). The class given is cell-based. Particulars: Jurkat cell line over-expressing human PD-1; PE-labeled PD-L1-Ig 20 nM final; read-out: Jurkat hPD1-PDL1 IC50. The method in brief: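 Read-out is high-content imaging of cell-bound phycoerythrin-tagged PD-L1-Ig on fixed, Hoechst-counterstained Jurkat cells that over-express human PD-1. Compound exposure lasts 2 h at 37° C before the labeled ligand (20 nM final) is added for a further hour.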
In the case of `CC(C)C[C@H]1NC(=O)[C@H](CCCN)NC(=O)[C@H](C(C)C)NC(=O)[C@H](Cc2ccc(-c3ccccc3)cc2)NC(=O)[C@H](C(C)C)NC(=O)[C@H](Cc2c[nH]c3ccccc23)NC(=O)[C@H](CC(=O)O)NC(=O)[C@H](Cc2ccc(OCC(=O)O)cc2)NC(=O)[C@H](Cc2c[nH]cn2)NC(=O)CSC[C@@H](C(=O)N[C@H](C)C(=O)N[C@@H](CCC(=O)O)C(=O)NCCCCCCCCCCC(=O)O)NC(=O)[C@H]([C@@H](C)O)NC(=O)[C@H](C(C)C)NC(=O)[C@H](CC2CCCCC2)NC(=O)[C@H](CCN)NC1=O` [Compound 2785] ({CH2CO}-HY(Carboxymethyl)DWV[Bip]V[Orn][dL][Dab][Cha]VTC[dA]E[Aun]-OH; thioether N-14), the half-maximal inhibitory concentration (IC50) amounted to 16.1 nM.
As for `CNC[C@H](NC(=O)[C@@H]1CSCC(=O)N[C@@H](CN)C(=O)N[C@@H](Cc2ccc(OCC(=O)O)cc2)C(=O)N[C@@H](CC(=O)O)C(=O)N[C@@H](Cc2cccc(C)c2)C(=O)N[C@@H](C(C)C)C(=O)N[C@@H](Cc2ccc(-c3ccccc3)cc2)C(=O)N[C@@H](CCCNC(N)=O)C(=O)N[C@@H](CCCN)C(=O)N[C@H](CC(C)C)C(=O)N[C@@H](CCN)C(=O)N[C@@H](CC2CCCCC2)C(=O)N[C@@H](C(C)C)C(=O)N[C@@H]([C@@H](C)O)C(=O)N1)C(=O)NCCCCCCCCCCC(=O)O` [Compound 2787] ({CH2CO}-[Dap]Y(Carboxymethyl)D[Phe(3-Me)]V[Bip][Cit][Orn][dL][Dab][Cha]VTC[Dap(Me)][Aun]-OH; thioether N-14), the figure is 28.3 nM; as for `CC(C)C[C@H]1NC(=O)[C@H](CCCN)NC(=O)[C@H](C(C)C)NC(=O)[C@H](Cc2ccc(-c3ccccc3)cc2)NC(=O)[C@H](C(C)C)NC(=O)[C@H](Cc2c[nH]c3ccccc23)NC(=O)[C@H](CC(=O)O)NC(=O)[C@H](Cc2ccc(OCC(=O)O)cc2)NC(=O)[C@H](CN)NC(=O)CSC[C@@H](C(=O)N[C@@H](CCN)C(=O)NCCCCCCCCCCC(=O)O)NC(=O)[C@H](CCC(=O)O)NC(=O)[C@H](C(C)C)NC(=O)[C@H](CC2CCCCC2)NC(=O)[C@H](Cc2c[nH]cn2)NC1=O` [Compound 2788] ({CH2CO}-[Dap]Y(Carboxymethyl)DWV[Bip]V[Orn][dL]H[Cha]VEC[Dab][Aun]-OH; thioether N-14), 22.3 nM; as for `Cc1cccc(C[C@@H]2NC(=O)[C@H](CC(=O)O)NC(=O)[C@H](Cc3ccc(O)cc3)NC(=O)[C@H](CC(N)=O)NC(=O)CSC[C@@H](C(=O)N[C@@H](CCN)C(=O)NCCCCCCCCCCC(=O)O)NC(=O)[C@H](CCC(N)=O)NC(=O)[C@H](C(C)C)NC(=O)[C@H](CC(C)C)NC(=O)[C@H](CCN)NC(=O)[C@@H](CC(C)C)NC(=O)[C@H](CCCN)NC(=O)[C@H](CCCNC(N)=O)NC(=O)[C@H](Cc3ccc(-c4ccccc4)cc3)NC(=O)[C@H](C(C)C)NC2=O)c1` [Compound 2789] ({CH2CO}-NYD[Phe(3-Me)]V[Bip][Cit][Orn][dL][Dab]LVQC[Dab][Aun]-OH; thioether N-14), 23.8 nM.
Regarding `Cc1cccc(C[C@@H]2NC(=O)[C@H](CC(=O)O)NC(=O)[C@H](Cc3ccc(O)cc3)NC(=O)[C@H](CC(N)=O)NC(=O)CSC[C@@H](C(=O)N[C@@H](CCCN)C(=O)NCCCCCCCCCCC(=O)O)NC(=O)[C@H](CCC(N)=O)NC(=O)[C@H](C(C)C)NC(=O)[C@H](CC(C)C)NC(=O)[C@H](CCN)NC(=O)[C@@H](CC(C)C)NC(=O)[C@H](CCCN)NC(=O)[C@H](CCCNC(N)=O)NC(=O)[C@H](Cc3ccc(-c4ccccc4)cc3)NC(=O)[C@H](C(C)C)NC2=O)c1` [Compound 2790] ({CH2CO}-NYD[Phe(3-Me)]V[Bip][Cit][Orn][dL][Dab]LVQC[Orn][Aun]-OH; thioether N-14), the IC50 turned out to be 71.1 nM.
Take `Cc1cccc(C[C@@H]2NC(=O)[C@H](CC(=O)O)NC(=O)[C@H](Cc3ccc(O)cc3)NC(=O)[C@H](CC(N)=O)NC(=O)CSC[C@@H](C(=O)N[C@@H](CCN)C(=O)NCCCCCCCCCCC(=O)O)NC(=O)[C@@H](CCC(N)=O)NC(=O)[C@H](C(C)C)NC(=O)[C@H](CC(C)C)NC(=O)[C@H](CCN)NC(=O)[C@@H](CC(C)C)NC(=O)[C@H](CCCN)NC(=O)[C@H](CCCNC(N)=O)NC(=O)[C@H](Cc3ccc(-c4ccccc4)cc3)NC(=O)[C@H](C(C)C)NC2=O)c1` [Compound 2791] ({CH2CO}-NYD[Phe(3-Me)]V[Bip][Cit][Orn][dL][Dab]LV[dQ]C[Dab][Aun]-OH; thioether N-14): the IC50 was found to be 36.7 nM.
For `Cc1cccc(C[C@@H]2NC(=O)[C@H](CC(=O)O)NC(=O)[C@H](Cc3ccc(O)cc3)NC(=O)[C@H](CC(N)=O)NC(=O)CSC[C@@H](C(=O)N[C@@H](CCCN)C(=O)NCCCCCCCCCCC(=O)O)NC(=O)[C@@H](CCC(N)=O)NC(=O)[C@H](C(C)C)NC(=O)[C@H](CC(C)C)NC(=O)[C@H](CCN)NC(=O)[C@@H](CC(C)C)NC(=O)[C@H](CCCN)NC(=O)[C@H](CCCNC(N)=O)NC(=O)[C@H](Cc3ccc(-c4ccccc4)cc3)NC(=O)[C@H](C(C)C)NC2=O)c1` [Compound 2792] ({CH2CO}-NYD[Phe(3-Me)]V[Bip][Cit][Orn][dL][Dab]LV[dQ]C[Orn][Aun]-OH; thioether N-14), the IC50 was determined as 75.7 nM.
Regarding `CC(C)C[C@H]1NC(=O)[C@H](CCCN)NC(=O)[C@H](C(C)C)NC(=O)[C@H](Cc2ccc(-c3ccccc3)cc2)NC(=O)[C@H](C(C)C)NC(=O)[C@H](Cc2c[nH]c3ccccc23)NC(=O)[C@H](CC(=O)O)NC(=O)[C@H](Cc2ccc(OCC(=O)O)cc2)NC(=O)[C@H](CN)NC(=O)CSC[C@@H](C(=O)N[C@@H](CCN)C(=O)NCCCCCCCCCCC(=O)O)NC(=O)[C@H](CCC(N)=O)NC(=O)[C@H](C(C)C)NC(=O)[C@H](CC2CCCCC2)NC(=O)[C@H](Cc2c[nH]cn2)NC1=O` [Compound 2793] ({CH2CO}-[Dap]Y(Carboxymethyl)DWV[Bip]V[Orn][dL]H[Cha]VQC[Dab][Aun]-OH; thioether N-14), the IC50 stood at 21.6 nM.
For `CC(C)C[C@H]1NC(=O)[C@H](CCCN)NC(=O)[C@H](C(C)C)NC(=O)[C@H](Cc2ccc(-c3ccccc3)cc2)NC(=O)[C@H](C(C)C)NC(=O)[C@H](Cc2c[nH]c3ccccc23)NC(=O)[C@H](CC(=O)O)NC(=O)[C@H](Cc2ccc(OCC(=O)O)cc2)NC(=O)[C@H](CN)NC(=O)CSC[C@@H](C(=O)N[C@@H](CCCN)C(=O)NCCCCCCCCCCC(=O)O)NC(=O)[C@H](CCC(N)=O)NC(=O)[C@H](C(C)C)NC(=O)[C@H](CC2CCCCC2)NC(=O)[C@H](Cc2c[nH]cn2)NC1=O` [Compound 2794] ({CH2CO}-[Dap]Y(Carboxymethyl)DWV[Bip]V[Orn][dL]H[Cha]VQC[Orn][Aun]-OH; thioether N-14), the IC50 was found to be 28 nM.
For the molecule `CC(C)C[C@H]1NC(=O)[C@H](CCCN)NC(=O)[C@H](C(C)C)NC(=O)[C@H](Cc2ccc(-c3ccccc3)cc2)NC(=O)[C@H](C(C)C)NC(=O)[C@H](Cc2c[nH]c3ccccc23)NC(=O)[C@H](CC(=O)O)NC(=O)[C@H](Cc2ccc(OCC(=O)O)cc2)NC(=O)[C@H](CN)NC(=O)CSC[C@@H](C(=O)N[C@@H](CCN)C(=O)NCCCCCCCCCCC(=O)O)NC(=O)[C@@H](CCC(N)=O)NC(=O)[C@H](C(C)C)NC(=O)[C@H](CC2CCCCC2)NC(=O)[C@H](Cc2c[nH]cn2)NC1=O` [Compound 2795] ({CH2CO}-[Dap]Y(Carboxymethyl)DWV[Bip]V[Orn][dL]H[Cha]V[dQ]C[Dab][Aun]-OH; thioether N-14), the IC50 came out at 63.4 nM.
For `CC(C)C[C@H]1NC(=O)[C@H](CCCN)NC(=O)[C@H](C(C)C)NC(=O)[C@H](Cc2ccc(-c3ccccc3)cc2)NC(=O)[C@H](C(C)C)NC(=O)[C@H](Cc2c[nH]c3ccccc23)NC(=O)[C@H](CC(=O)O)NC(=O)[C@H](Cc2ccc(OCC(=O)O)cc2)NC(=O)[C@H](CN)NC(=O)CSC[C@@H](C(=O)N[C@@H](CCCN)C(=O)NCCCCCCCCCCC(=O)O)NC(=O)[C@@H](CCC(N)=O)NC(=O)[C@H](C(C)C)NC(=O)[C@H](CC2CCCCC2)NC(=O)[C@H](Cc2c[nH]cn2)NC1=O` [Compound 2796] ({CH2CO}-[Dap]Y(Carboxymethyl)DWV[Bip]V[Orn][dL]H[Cha]V[dQ]C[Orn][Aun]-OH; thioether N-14), the IC50 worked out at 78.5 nM.
As for `Cc1cccc(C[C@@H]2NC(=O)[C@H](CC(=O)O)NC(=O)[C@H](Cc3ccc(OCC(=O)O)cc3)NC(=O)[C@H](CCCNC(=N)N)NC(=O)CSC[C@@H](C(=O)N[C@@H](CCN)C(=O)NCCCCCCCCCCC(=O)O)NC(=O)[C@H](CCC(N)=O)NC(=O)[C@H](C(C)C)NC(=O)[C@H](CC3CCCCC3)NC(=O)[C@H](CCN)NC(=O)[C@@H](CC(C)C)NC(=O)[C@H](CCN)NC(=O)[C@H](CCCNC(N)=O)NC(=O)[C@H](Cc3ccc(-c4ccccc4)cc3)NC(=O)[C@H](C(C)C)NC2=O)c1` [Compound 2797] ({CH2CO}-RY(Carboxymethyl)D[Phe(3-Me)]V[Bip][Cit][Dab][dL][Dab][Cha]VQC[Dab][Aun]-OH; thioether N-14), the IC50 is 11.8 nM.
For the molecule `Cc1cccc(C[C@@H]2NC(=O)[C@H](CC(=O)O)NC(=O)[C@H](Cc3ccc(OCC(=O)O)cc3)NC(=O)[C@H](CCCNC(=N)N)NC(=O)CSC[C@@H](C(=O)N[C@@H](CCCN)C(=O)NCCCCCCCCCCC(=O)O)NC(=O)[C@H](CCC(N)=O)NC(=O)[C@H](C(C)C)NC(=O)[C@H](CC3CCCCC3)NC(=O)[C@H](CCN)NC(=O)[C@@H](CC(C)C)NC(=O)[C@H](CCN)NC(=O)[C@H](CCCNC(N)=O)NC(=O)[C@H](Cc3ccc(-c4ccccc4)cc3)NC(=O)[C@H](C(C)C)NC2=O)c1` [Compound 2798] ({CH2CO}-RY(Carboxymethyl)D[Phe(3-Me)]V[Bip][Cit][Dab][dL][Dab][Cha]VQC[Orn][Aun]-OH; thioether N-14), the concentration for half-maximal inhibition (IC50) worked out at 7.1 nM.

(Values after US20260022142A1, “MACROCYCLIC IMMUNOMODULATORS” (Bristol-Myers Squibb Company, priority 2022, published 2026).)
